Source: US20120302636A1, “METHOD OF TREATING A DISORDER ASSOCIATED WITH MTP” (priority 2009, published 2012)

Assays:
[1] = 3-month oral repeated dose toxicity study in dogs; assay type: in vivo; conditions: 25 mg/kg
LDL-C levels = assay: Example 4: 8-week study in hyperlipidemia, efficacy; assay type: in vivo, human
Experimental: (§1) One hundred five Japanese patients with hyperlipidemia (LDL-C between 140 and 220 mg/dL; TG≦400 mg/dL) participated in the study. […] For the efficacy analysis, 95 subjects were observed (0.5 mg BID: 25 subjects, 1 mg BID: 24 subjects, 2 mg BID: 22 subjects, 4 mg BID: 24 subjects).
The objective was to administer the compound of formula (I) orally to hyperlipidemic patients at a dose of 0.5, 1, 2, or 4 mg as capsules twice daily after the morning (e.g., breakfast) and evening meal (e.g., dinner) for eight weeks in order to explore a dose range in which the compound of formula (I) reduced LDL-C levels. In addition, the effects on lipid metabolism, safety, and pharmacokinetics of the compound of formula (I) were evaluated.

[2] = Example 4: 8-week study in hyperlipidemia, safety; assay type: in vivo, human
Experimental: as §1

[3] = Example 4: pharmacokinetics; assay type: in vivo, human
Experimental: as §1

Example 8: safety = assay type: in vivo, human
Description: The study had 180 participants.

[4] = tested on: gut hormone (GLP-1 active, PYY total, GIP total) levels; assay: Example 9: gut hormone levels in obese male subjects; assay type: in vivo, human; conditions: for increase in GLP-1 active compared with placebo / increase in PYY total compared with placebo: 4 hours after dinner
Experimental: The study enrolled 16 obese male subjects (18-65 years of age (inclusive), with a body mass index (BMI) >30.0 kg/m^2 and <40.0 kg/m^2) who participated in two treatment periods. During Period 1, 8 subjects were randomized to receive 3.5 mg of the compound of formula (I), and 8 subjects were randomized to receive placebo. The compound of formula (I) or placebo was administered twice daily (BID), 30 minutes after the start of breakfast and dinner, for 10 days. All subjects were discharged from the clinic at the end of Period 1 for a 9±2 day discharge period. Subjects then returned for treatment during Period 2, in which (i) the group previously receiving the compound of formula (I) now received placebo, and (ii) the group previously receiving placebo now received the compound of formula (I), in accordance with the protocol described above.
The primary objective of this study was to examine the change in gut hormone levels. The co-primary endpoints were trough gut hormone (glucagon-like peptide 1 (GLP-1) active, peptide tyrosine tyrosine (PYY) total, and gastric inhibitory polypeptide (GIP) total) levels on Day 10 in each treatment period and the trough gut hormone profile throughout the study. On Day 10 of each treatment period, statistically significant mean increases in GLP-1 active (60%) and PYY total (43%) were observed during administration of the compound of formula (I) compared with placebo, whereas no change in GIP total relative to placebo was found.

[5] = Example 8: 12-week study in obese subjects, efficacy; conditions: for mean change from baseline to EOT in body weight: 12 weeks
Description: This example involved a clinical study of the compound of formula (I), which was a randomized, double-blind, placebo-controlled, parallel group study to evaluate the efficacy of the compound of formula (I) administered twice daily for twelve weeks in obese subjects.
The study had 180 participants. The 180 subjects comprised 59 males and 121 females, 18 to 65 years old, with BMI≧30 kg/m^2 to <40 kg/m^2. The subjects were separated into four arms of 45 subjects, including one arm as placebo. Each test subject received a tablet taken orally over a period of 12 weeks after breakfast and dinner (BID) (specifically, within 180 minutes of the commencement of eating) of 1 mg, 2.5 mg, or 3.5 mg, using one or multiples of tablets of 1 mg and 2.5 mg of the compound of formula (I) to achieve the total dose. Of the total entrants, 40 entrants completed the 1 mg regimen, 42 entrants completed the 2.5 mg regimen, 41 entrants completed the 3.5 mg regimen, and 42 entrants completed the placebo regimen.
This study was designed to investigate the weight loss effect of the compound of formula (I) administered BID for 12 weeks to obese subjects. The effect of the compound of formula (I) on ancillary efficacy measures (e.g., waist circumference, waist-hip ratio, percent body fat, serum lipid parameters, and markers related to glycemic control, obesity, and inflammation) was also evaluated, as was safety. The primary efficacy variable was body weight change from baseline after 12 weeks of treatment.

In the case of CCOC(=O)C(COC(=O)Cc1ccc(NC(=O)c2ccccc2-c2ccc(C(F)(F)F)cc2)c(C(=O)N(C)C)c1)(C(=O)OCC)c1ccccc1 [compound of formula (I), diethyl 2-((2-(3-(dimethylcarbamoyl)-4-(4′-(trifiuoromethyl)biphenyl-2-ylcarboxamido)phenyl)acetoxy)methyl)-2-phenyl malonate], the toxicity findings ([1]; 3-month safety study) is reported as “no toxicity findings”, the “vitamins D and E” value ([1]; 3 months oral) is reported as “decreased or tended to decrease” and the “mean percent change in LDL-C levels at Week 8 from baseline” value (“mean percent change in LDL-C levels” below) (LDL-C levels; 0.5 mg BID) is reported as −4.3%. The “mean percent change in LDL-C levels” value (LDL-C levels; 1 mg BID) was −4.5%, the “mean percent change in LDL-C levels” value (LDL-C levels; 2 mg BID) was −12.2% and the “mean percent change in LDL-C levels” value (LDL-C levels; 4 mg BID) was −12.3%. The “ApoB and ApoE levels” value (LDL-C levels; 2 and 4 mg BID) was “decreased”, the TC levels (LDL-C levels; 2 and 4 mg BID, throughout treatment) was “decreased” and the “insulin, hemoglobin Alc, adiponectin, or leptin level” value (LDL-C levels; in vivo) was “did not affect”. The “ApoB48, ApoA-I, ApoA-II, ApoC-II, and ApoC-III levels” value (LDL-C levels; treatment period) was “no significant changes”, the “time course of TG or HDL-C levels” value (LDL-C levels; treatment period) was “no definite trend or dose correlation” and the “incidence of moderate diarrhea” value ([2]; 0.5 mg BID) was 8.0%. For the same molecule, the “number of adverse events” value ([2]; 0.5 mg BID) was 20, the “number of moderate diarrhea events” value ([2]; 0.5 mg BID) was 2 and the “subjects with adverse events (incidence)” value ([2]; 0.5 mg BID) was 44.0%. The incidence of diarrhea ([2]; 1 mg BID) was 15.9%, the “incidence of moderate diarrhea” value ([2]; 1 mg BID) was 0.0% and the “number of adverse events” value ([2]; 1 mg BID) was 60. The “number of diarrhea events” value ([2]; 1 mg BID) was 6, the “number of moderate diarrhea events” value ([2]; 1 mg BID) was 0 and the “subjects with adverse events (incidence)” value ([2]; 1 mg BID) was 75.0%. The incidence of diarrhea ([2]; 2 mg BID) was 24.0%, the “incidence of moderate diarrhea” value ([2]; 2 mg BID) was 12.0% and the “number of adverse events” value ([2]; 2 mg BID) was 51. For the same molecule, the “number of diarrhea events” value ([2]; 2 mg BID) was 12, the “number of moderate diarrhea events” value ([2]; 2 mg BID) was 4 and the “subjects with adverse events (incidence)” value ([2]; 2 mg BID) was 80.0%. For the same molecule, the incidence of diarrhea ([2]; 4 mg BID) was 40.7%, the “incidence of moderate diarrhea” value ([2]; 4 mg BID) was 29.6% and the “number of adverse events” value ([2]; 4 mg BID) was 82. For the same molecule, the “number of diarrhea events” value ([2]; 4 mg BID) was 21, the “number of moderate diarrhea events” value ([2]; 4 mg BID) was 13 and the “subjects with adverse events (incidence)” value ([2]; 4 mg BID) was 85.2%. For the same molecule, the “death or serious adverse events” value ([2]; 0.5-4 mg BID capsules, 8 weeks) was “neither death nor other serious adverse events occurred”, the “events of gastrointestinal disorders” value ([2]; 105 subjects) was 117 and the “events of infections and infestations” value ([2]; 105 subjects) was 11. For the same molecule, the events of investigations ([2]; 105 subjects) was 49, the “events of metabolism and nutrition disorders” value ([2]; 105 subjects) was 7 and the “events of musculoskeletal, and connective tissue disorders” value ([2]; 105 subjects) was 7. The “incidence of gastrointestinal disorders (SOC)” value ([2]; 105 subjects) was 47.6%, the “incidence of infections and infestations (SOC)” value ([2]; 105 subjects) was 9.5% and the “incidence of investigations (SOC)” value ([2]; 105 subjects) was 31.4%. The “incidence of metabolism and nutrition disorders (SOC)” value ([2]; 105 subjects) was 6.7%, the “incidence of moderate adverse events” value ([2]; 105 subjects) was 18.1% and the “incidence of musculoskeletal, and connective tissue disorders (SOC)” value ([2]; 105 subjects) was 6.7%. For the same molecule, the “laboratory abnormality ALT, subjects” value ([2]; 105 subjects) was 5.7%, the “laboratory abnormality CPK, subjects” value ([2]; 105 subjects) was 6.7% and the “laboratory abnormality CRP, subjects” value ([2]; 105 subjects) was 3.8%. For the same molecule, the “laboratory abnormality IP, subjects” value ([2]; 105 subjects) was 2.9%, the “laboratory abnormality γ-GTP, subjects” value ([2]; 105 subjects) was 3.8% and the “number of moderate adverse events” value ([2]; 105 subjects) was “Twenty-six”. For the same molecule, the “number of adverse events” value ([2]; all 105 subjects) was 213, the “subjects with adverse events (incidence)” value ([2]; all 105 subjects) was 71.45% and the “fat-soluble vitamins (vitamin A, 25-OH vitamin D, and vitamin E)” value ([2]; in vivo) was “no clinically significant changes”. The “subjects withdrawn from the study treatment because of adverse events” value ([2]; of 105 subjects) was “four”, the “plasma compound of formula (I) concentrations” value ([3]; 0.5 and 1 mg BID, not quantifiable) was less than 0.3 ng/mL and the “plasma compound of formula (I) concentrations” value ([3]; 2 and 4 mg BID) was “not quantifiable, except in a few sporadic cases”. The “incidence of drug-related decreased appetite” value (Example 8: safety; 1 mg BID) was 4.4%, the “incidence of drug-related decreased appetite” value (Example 8: safety; 2.5 mg BID) was 20.0% and the “subjects prematurely discontinued due to diarrhea” value (Example 8: safety; 2.5 mg BID) was 1 subject. The “incidence of drug-related decreased appetite” value (Example 8: safety; 3.5 mg BID) was 22.2%, the “subjects prematurely discontinued due to diarrhea” value (Example 8: safety; 3.5 mg BID) was 2 subject and the tolerability (Example 8: safety; 1 to 3.5 mg BID, 12 weeks) was “generally well tolerated”. For the same molecule, the “fat-soluble vitamins or coagulation factors” value (Example 8: safety; in vivo) was “no clinically significant changes”, the “liver function parameters (AST, ALT, alkaline phosphatase) PCS values” (Example 8: safety; in vivo) was “no subject had a PCS value” and the “mean increase in trough GLP-1 active compared with placebo” value ([4]; 3.5 mg BID, Day 10) was 60%. For the same molecule, the “mean increase in trough PYY total compared with placebo” value ([4]; 3.5 mg BID, Day 10) was 43%, the “trough GIP total relative to placebo” value ([4]; 3.5 mg BID, Day 10) was “no change” and the “increase in GLP-1 active compared with placebo” value ([4]; Day 2) was 38%. The “increase in PYY total compared with placebo” value ([4]; Day 2) was 44%, the “increase in GLP-1 active compared with placebo” value ([4]; Day 9) was 71% and the “increase in PYY total compared with placebo” value ([4]; Day 9) was 42%. For the same molecule, the “GIP total relative to placebo” value ([4]; 4 hours post-dinner, Day 2 and Day 9) was “No statistically significant differences”, the “gut hormone AUC profiles around breakfast” value ([4]; Day 2, -0.5 to 3.5 hours relative to dosing) was “no significant changes” and the GIP total profile ([4]; Day 2 or Day 9) was “No significant changes”. The “average increase in GLP-1 active around breakfast” value ([4]; Day 9) was 38%, the “average increase in PYY total around breakfast” value ([4]; Day 9) was 51% and the “decrease in AUC for GIP total compared with placebo” value ([4]; Day 9, around breakfast) was 17%. For the same molecule, the “increase in AUC for GLP-1 active compared with placebo” value ([4]; Day 9, around breakfast) was 31%, the “increase in AUC for PYY total compared with placebo” value ([4]; Day 9, around breakfast) was 39% and the “average increase in trough PYY total” value ([4]; days 2 through 11) was 63%. For the same molecule, the “average increase in trough GIP total” value ([4]; days 3, 5 and 11) was 24%, the “average increase in trough GLP-1 active” value ([4]; days 3 through 11) was 45% and the “mean change from baseline to EOT in body weight” value (from here on “mean change from baseline to EOT”) ([5]; 1 mg BID) was -0.70 kg. The “mean change from baseline to EOT” value ([5]; 2.5 mg BID) was -1.74 kg, the “mean change from baseline to EOT” value ([5]; 3.5 mg BID) was -2.19 kg and the “waist circumference, waist-hip ratio, percent body fat vs placebo” value ([5]; after 12 weeks) was “No statistically significant differences”. The “mean decreases from baseline LDL-C” value ([5]; after 12 weeks, 3 compound groups) was −5.90 to −8.27 mg/dL, the triglyceride levels ([5]; all treatment groups) was “increased from baseline” and the “TC and ApoB” value ([5]; human, in vivo) was “improvements (reductions)”. The “weight loss by perilipin gene mutation” value ([5]; human, in vivo) was “no differences”.
